Experimental findings from paper PMC6934184, “Selective DNA-PKcs inhibition extends the therapeutic index of localized radiotherapy and chemotherapy” (The Journal of Clinical Investigation, 2019) are described below.

The target in the experiment is T1, RAF1 (cRAF) Y340D Y341D (Homo sapiens, UniProt P04049, Y340D/Y341D).
T1 construct: purchased Thermo Fisher Scientific (Life Technologies) SelectScreen
The experiment in a line: SelectScreen Z'LYTE. The class given is biochemical. The following applies: ATP 100 µM. In short, it runs like this:
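SelectScreen broad panel; activity (Z'LYTE, Adapta) plus binding formats. ATP: Km app for CSF1R Z'LYTE; 10 for CAMK1 Adapta. Readout = % per kinase.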

T1 sequence (P04049 whole entry Y340D/Y341D): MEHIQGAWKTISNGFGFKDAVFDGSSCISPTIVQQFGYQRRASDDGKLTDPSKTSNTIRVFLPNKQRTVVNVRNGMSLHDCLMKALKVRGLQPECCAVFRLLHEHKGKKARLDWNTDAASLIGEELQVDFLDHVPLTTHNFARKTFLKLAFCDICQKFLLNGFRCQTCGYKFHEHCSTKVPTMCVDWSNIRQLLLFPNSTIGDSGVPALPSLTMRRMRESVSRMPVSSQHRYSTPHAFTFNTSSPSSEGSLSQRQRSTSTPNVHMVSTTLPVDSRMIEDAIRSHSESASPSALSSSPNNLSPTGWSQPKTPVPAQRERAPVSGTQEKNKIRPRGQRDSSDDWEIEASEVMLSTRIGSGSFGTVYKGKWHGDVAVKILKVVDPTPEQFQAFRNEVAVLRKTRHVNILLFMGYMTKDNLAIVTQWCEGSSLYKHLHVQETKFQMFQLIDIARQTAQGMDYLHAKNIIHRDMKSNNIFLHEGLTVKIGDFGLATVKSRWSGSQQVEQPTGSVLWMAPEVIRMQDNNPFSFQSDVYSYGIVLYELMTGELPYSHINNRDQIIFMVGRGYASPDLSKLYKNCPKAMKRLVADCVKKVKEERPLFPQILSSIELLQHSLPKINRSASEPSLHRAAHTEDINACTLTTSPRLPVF

On to `CN(C(=O)CN1CCOCC1)c1ccc2sc3c(-c4cccc5c(=O)cc(N6CC7CCC(C6)O7)oc45)cccc3c2c1` [NU5455], for which at 1 µM the inhibition was 7.9%.
